The test system of the experiment is NAD(P) synthesis from niacinamide in HepG2 cells. The experiment in a line: Determination of NAD(P) synthesis from [14C]niacinamide in HepG2 cells. The settings on record: for inhibition at 10 µM / activity at 10 µM: Homo sapiens; for inhibition at 10 µM: read-out: Cellular NAD synthesis inhibition [%]; for activity at 10 µM / NAD(P) pmol/10^6 cells / NAD(P) pmol/mg protein: Table 3a, compound 10^-5 M; for activity at 10 µM: read-out: NAD(P) % of Control; for NAD(P) pmol/10^6 cells: 17 hrs pre-incubation, control 302.1; for NAD(P) pmol/mg protein: control 186.4. The format is cell-based, human. From the text:
The effect of the compounds on the synthesis of NAD(P) starting from niacinamide was investigated using for example the tumor cell line HepG2 according to the technique described in the experimental part below.
The inhibition of the NAD(P) synthesis from niacinamide by these compounds was investigated in HepG2 cells as described in the section “Material and Methods”. The compounds of Table 3 a were used at a concentration of 10^−5 M. The compounds of Table 3 b were used at concentrations of at least 10^−5 M, except for Doxorubicin where the concentration was 0.3×10^−5 M. As a control, vehicle treated or untreated cells were used.
In these experiments, a pre-incubation period of 17 hrs with the compounds was used, but it turned out that the pre-incubations period could be shortened, for example to 2 hrs, or skipped completely without affecting the inhibition profile. […] Similar results were obtained with the other specific compounds.
For the detection of specific inhibitors of niacinamide mononucleotide formation the following screening assay is especially useful which comprises the following steps: incubating cultured cells selected from HepG2 cells, U-87 MG cells, MCF-7 M1 cells, Caki-1 cells, HL-60 cells, PC3 cells, U-373 MG cells, A549 cells and KG-1a cells in the presence of [^14C]niacinamide and a compound to be tested for its activity to inhibit the cellular formation of niacinamide mononucleotide; effecting lysis of the cells; isolating and separating the [^14C]-labeled compounds and measuring the amount of formed labeled niacinamide mononucleotide, NAD and NADP. More concretely, cultured cells are seeded in a defined density in culture dishes, followed by incubation in the presence of a test compound and by the addition of [^14C]niacinamide for about 0.1 to 6 hrs. The cells are then lysed with perchloric acid and the resulting extract is neutralized. Finally, the [^14C]-labeled compounds are separated by thin-layer chromatography on cellulose matrices followed by UV detection and autoradiography. Non-radioactive niacinamide derivatives are used as standards. This assay allows simple and effective screening and selection of the compounds according to the invention.
Determination of NAD(P) Synthesis from [^14C]Niacinamide
The cells were detached from 75 cm^2 flasks by removing the growth medium and adding 3 ml trypsin/EDTA solution to each flask. After about 5 minutes incubation at 37° C., when the cells were detached from the surface of the dishes, trypsinization was stopped by adding 3 ml Richter's IMEM-ZO medium containing 10% FCS. The cells were suspended by repeated pipetting. For predilution, an aliquot of 20 μl was added to 10 ml Casyton isotonic solution (No. 043-90037P, Schärfe System, Reutlingen, Germany) using a Sysmex Auto Dilutor Type AD-260 (Toa, Medical Electronics Co. Ltd., Kobe, Japan). The cell number was determined by electronic cell volume measurements and counting with a CASY 1 Cell Counter+Analyzer System, Model TTC (Schärfe System, Reutlingen, Germany) equipped with a 60 μm capillary. Following dilution in IMEM-ZO containing 10% FCS, the cells were finally seeded at a density of 4×10^6/10 ml per sample in Ø 10 cm tissue culture dishes (Greiner, Frickenhausen, Germany) and incubated at 37° C. in a humidified atmosphere of 5% CO2 in air.
After one day, when the cells were adherent to the dishes, the cultures were replenished with IMEM-ZO containing 5% FCS plus the test compound or the vehicle. […] The cells were then incubated at 37° C. for 17 hours in a humidified atmosphere of 5% CO2 in air. This preincubation period is not necessary to achieve a distinct inhibitory action of the compounds and can be shortened for example to 2 or 0 hours. After this period of time, the medium was again discarded and 4 ml HEPES-buffered IMEM-ZO containing the test compound or the vehicle and 0.5 μCi/ml [^14C]niacinamide were added to each culture for an additional 5 hours at 37° C. and 100% humidity. […]

Structures are written as SMILES.

`O=C(NCCCCC1CCN(S(=O)(=O)c2ccc3ccccc3c2)CC1)Nc1cccnc1` [Compound K22365, 1-{4-[1-(naphthalene-2-sulfonyl)-piperidine-4-yl)-butyl}-3-pyridine-3-yl-urea]: the inhibition at 10 µM is 92%.
As for `NC(Cc1ccc(O)c(N=Nc2ccccc2C(=O)N2CCC(CCCCNC(=O)/C=C/c3cccnc3)CC2)c1)C(=O)O` (stereo not shown) [Compound K22408, 2-amino-3-[4-hydroxy-3-(2-{4-[4-(3-pyridine-3-yl-acryloyl-amino)-butyl]-piperidine-1-carbonyl}-phenylazo)-phenyl]-propanoic acid trihydrate], the inhibition at 10 µM amounted to 98%, the activity at 10 µM worked out at 1.6%, the “NAD(P) pmol/10^6 cells” value came out at 4.9 pmol/10^6 cells and the “NAD(P) pmol/mg protein” value came out at 3.0 pmol/mg protein.
With `Cn1c(CCNC(=O)/C=C/c2cccnc2)ccc1CN1CCN(C(c2ccccc2)c2ccccc2)CC1` [Compound K22350, N-{2-[5-(4-benzhydryl-piperazine-1-yl-methyl)-1-methyl-1H-pyrrole-2-yl]-ethyl}-3-pyridine-3-yl-acrylamide], the inhibition at 10 µM stood at 99%, the activity at 10 µM was determined as 0.9%, the “NAD(P) pmol/10^6 cells” value is given as 2.7 pmol/10^6 cells and the “NAD(P) pmol/mg protein” value is 1.7 pmol/mg protein.
As for `O=C(NCCCCC1CCN(C(=O)N2c3ccccc3CCc3ccccc32)CC1)Nc1cccnc1` [Compound K22387, 1-{4-[1-(1,11-dihydro-dibenzene[b,f]azepine-5-carbonyl)-piperidine-4-yl]-butyl}-3-pyridine-3-yl-urea], the inhibition at 10 µM stood at 99%, the activity at 10 µM amounted to 0.9%, the “NAD(P) pmol/10^6 cells” value is given as 2.6 pmol/10^6 cells and the “NAD(P) pmol/mg protein” value came out at 1.6 pmol/mg protein.
